Series [1] can be described thus: Cytotoxicity against mouse J774.1 cells after 24 hrs by Alamar blue assay. Type of series: cell-based. On the technique in general: Resazurin is reduced to fluorescent resorufin, in cell work by metabolically active cells.
The nature of series [2]: Octanol/water partition co-efficient, log P of the compound by HPLC based method. It is filed as physicochemical.
A short description of series [3]: Drug metabolism in rat liver microsomes assessed as CYP450-mediated 6-fluoro-3-(4-fluorobenzylcarbamoyl)-1-(3-hydroxybutyl)-7-morpholino-4-oxo-1,4-dihydroquinolinium formation at 100 uM using NADPH/H+ as co-factor after 30 to 90 mins by LC/MSD iom trap method. Type of series: ADME. (In general: Liver microsomes are a subcellular fraction often used to study metabolism.)

Series [4] can be described thus: Drug metabolism in rat liver microsomes assessed as CYP450-mediated 6-fluoro-3-(4-fluorobenzylcarbamoyl)-1-methyl-7-morpholino-4-oxo-1,4-dihydroquinolinium formation at 100 uM using NADPH/H+ as co-factor after 30 to 90 mins by LC/MSD iom trap method. It is filed as ADME.
Series [5] relates to Trypanosoma brucei brucei. The series is described as follows: Antitrypanosomal activity against trypomastigote forms of Trypanosoma brucei brucei TC 221 assessed as parasite growth inhibition after 48 hrs by Alamar blue assay. It is filed as functional, organism-based. The settings on record: TC 221, 48 h.
Series [6] can be described thus: Drug metabolism in rat liver cytosol assessed as CYP450-mediated 6-fluoro-3-(4-fluorobenzylcarbamoyl)-7-morpholino-4-oxo-1,4-dihydroquinolinium formation at 100 uM using NADPH/H+ as co-factor after 30 to 90 mins by LC/MSD iom trap method. Type of series: ADME, subcellular.
The nature of series [7]: Drug metabolism in rat liver cytosol assessed as CYP450-mediated 1-butyl-3-carboxy-6-fluoro-7-morpholino-4-oxo-1,4-dihydroquinolinium formation at 100 uM using NADPH/H+ as co-factor after 30 to 90 mins by LC/MSD iom trap method. Type of series: ADME, subcellular.
Series [8] can be described thus: Drug metabolism in rat liver microsomes assessed as CYP450-mediated 6-fluoro-3-(4-fluorobenzylcarbamoyl)-7-morpholino-4-oxo-1,4-dihydroquinolinium formation at 100 uM using NADPH/H+ as co-factor after 30 to 90 mins by LC/MSD iom trap method. It is filed as ADME.
Series [9] can be described thus: Drug metabolism in rat liver cytosol assessed as CYP450-mediated 6-fluoro-3-(4-fluorobenzylcarbamoyl)-1-methyl-7-morpholino-4-oxo-1,4-dihydroquinolinium formation at 100 uM using NADPH/H+ as co-factor after 30 to 90 mins by LC/MSD iom trap method. It is filed as ADME, subcellular.
Series [10] can be described thus: Half life in rat liver cytosol. It is filed as ADME, subcellular.
Series [11] in a line: Selectivity index, ratio of CC50 for mouse J774.1 cells to IC50 for trypomastigote forms of Trypanosoma brucei brucei TC 221 assessed as parasite growth inhibition after 48 hrs. Type of series: toxicity. The conditions noted are these: read-out: Ratio CC50/IC50.
Series [12] in a line: Drug metabolism in rat liver cytosol assessed as CYP450-mediated 6-fluoro-3-(4-fluorobenzylcarbamoyl)-1-(3-hydroxybutyl)-7-morpholino-4-oxo-1,4-dihydroquinolinium formation at 100 uM using NADPH/H+ as co-factor after 30 to 90 mins by LC/MSD iom trap method. Type of series: ADME, subcellular.
A short description of series [13]: Solubility of the compound in RPMI-1640 medium. Type of series: physicochemical.
The nature of series [14]: Drug metabolism in rat liver microsomes assessed as CYP450-mediated 1-butyl-3-carboxy-6-fluoro-7-morpholino-4-oxo-1,4-dihydroquinolinium formation at 100 uM using NADPH/H+ as co-factor after 30 to 90 mins by LC/MSD iom trap method. It is filed as ADME.
The test system of series [15] is Trypanosoma brucei brucei. The series is described as follows: Antitrypanosomal activity against trypomastigote forms of Trypanosoma brucei brucei TC 221 assessed as parasite growth inhibition after 72 hrs by Alamar blue assay. It is filed as functional, organism-based. The conditions noted are these: TC 221, 72 h.
The nature of series [16]: Drug metabolism in rat liver cytosol assessed as CYP450-mediated 1-butyl-3-carboxy-5-fluoro-7-morpholino-4-oxo-1,4-dihydroquinolinium formation at 100 uM using NADPH/H+ as co-factor after 30 to 90 mins by LC/MSD iom trap method. It is filed as ADME, subcellular.
The nature of series [17]: Drug metabolism in rat liver microsomes assessed as CYP450-mediated 5-fluoro-3-(4-fluorobenzylcarbamoyl)-1-(3-hydroxybutyl)-7-morpholino-4-oxo-1,4-dihydroquinolinium formation at 100 uM using NADPH/H+ as co-factor after 30 to 90 mins by LC/MSD iom trap method. Type of series: ADME.
The nature of series [18]: Drug metabolism in rat liver cytosol assessed as CYP450-mediated 5-fluoro-3-(4-fluorobenzylcarbamoyl)-7-morpholino-4-oxo-1,4-dihydroquinolinium formation at 100 uM using NADPH/H+ as co-factor after 30 to 90 mins by LC/MSD iom trap method. It is filed as ADME, subcellular.
Series [19] is described as follows: Drug metabolism in rat liver cytosol assessed as CYP450-mediated 5-fluoro-3-(4-fluorobenzylcarbamoyl)-1-methyl-7-morpholino-4-oxo-1,4-dihydroquinolinium formation at 100 uM using NADPH/H+ as co-factor after 30 to 90 mins by LC/MSD iom trap method. It is filed as ADME, subcellular.
Series [20] is described as follows: Drug metabolism in rat liver cytosol assessed as CYP450-mediated 5-fluoro-3-(4-fluorobenzylcarbamoyl)-1-(3-hydroxybutyl)-7-morpholino-4-oxo-1,4-dihydroquinolinium formation at 100 uM using NADPH/H+ as co-factor after 30 to 90 mins by LC/MSD iom trap method. It is filed as ADME, subcellular.
Series [21] is described as follows: Drug metabolism in rat liver microsomes assessed as CYP450-mediated 5-fluoro-3-(4-fluorobenzylcarbamoyl)-7-morpholino-4-oxo-1,4-dihydroquinolinium formation at 100 uM using NADPH/H+ as co-factor after 30 to 90 mins by LC/MSD iom trap method. Type of series: ADME.
The nature of series [22]: Drug metabolism in rat liver microsomes assessed as CYP450-mediated 5-fluoro-3-(4-fluorobenzylcarbamoyl)-1-methyl-7-morpholino-4-oxo-1,4-dihydroquinolinium formation at 100 uM using NADPH/H+ as co-factor after 30 to 90 mins by LC/MSD iom trap method. It is filed as ADME.
A short description of series [23]: Stability in rat liver cytosol assessed as compound turnover per mg protein. It is filed as ADME, subcellular.
Series [24] in a line: Drug metabolism in rat liver microsomes assessed as CYP450-mediated 1-butyl-3-carboxy-5-fluoro-7-morpholino-4-oxo-1,4-dihydroquinolinium formation at 100 uM using NADPH/H+ as co-factor after 30 to 90 mins by LC/MSD iom trap method. Type of series: ADME.
Series [25] can be described thus: Thermodynamic equilibrium solubility of the compound in pH 7.4 phosphate buffered saline after 24 hrs by shake flask method. Type of series: physicochemical. The conditions noted are these: read-out: Therm_solubility.
A short description of series [26]: Drug metabolism in rat liver microsomes assessed as CYP450-mediated amide hydrolysis oxidative N-dealkylation by measuring 3-carbamoyl-5-fluoro-1-methyl-7-morpholino-4-oxo-1,4-dihydroquinolinium formation at 100 uM using NADPH/H+ as co-factor after 30 to 90 mins by LC/MSD iom trap method. It is filed as ADME.
The nature of series [27]: Drug metabolism in rat liver cytosol assessed as CYP450-mediated amide hydrolysis oxidative N-dealkylation by measuring 3-carbamoyl-5-fluoro-1-methyl-7-morpholino-4-oxo-1,4-dihydroquinolinium formation at 100 uM using NADPH/H+ as co-factor after 30 to 90 mins by LC/MSD iom trap method. It is filed as ADME, subcellular.
Series [28] in a line: Drug metabolism in rat liver cytosol assessed as CYP450-mediated amide hydrolysis amidase by measuring 1-butyl-3-carbamoyl-5-fluoro-7-morpholino-4-oxo-1,4-dihydroquinolinium formation at 100 uM using NADPH/H+ as co-factor after 30 to 90 mins by LC/MSD iom trap method. It is filed as ADME, subcellular.
Series [29] is described as follows: Drug metabolism in rat liver cytosol assessed as CYP450-mediated oxidative N-dealkylation by measuring 3-(benzylcarbamoyl)-1-ethyl-5-fluoro-7-morpholino-4-oxo-1,4-dihydroquinolinium formation at 100 uM using NADPH/H+ as co-factor after 30 to 90 mins by LC/MSD iom trap method. It is filed as ADME, subcellular.
Series [30] is described as follows: Drug metabolism in rat liver microsomes assessed as CYP450-mediated oxidative N-dealkylation by measuring 3-(benzylcarbamoyl)-1-ethyl-5-fluoro-7-morpholino-4-oxo-1,4-dihydroquinolinium formation at 100 uM using NADPH/H+ as co-factor after 30 to 90 mins by LC/MSD iom trap method. It is filed as ADME.
Series [31] in a line: Drug metabolism in rat liver cytosol assessed as CYP450-mediated (w-1)-oxidation/alipathic hydroxylation by measuring 3-(benzylcarbamoyl)-5-fluoro-1-(3-hydroxybutyl)-7-morpholino-4-oxo-1,4-dihydroquinolinium formation at 100 uM using NADPH/H+ as co-factor after 30 to 90 mins by LC/MSD iom trap method. Type of series: ADME, subcellular.
Series [32] can be described thus: Drug metabolism in rat liver microsomes assessed as CYP450-mediated (w-1)-oxidation/alipathic hydroxylation by measuring 3-(benzylcarbamoyl)-5-fluoro-1-(3-hydroxybutyl)-7-morpholino-4-oxo-1,4-dihydroquinolinium formation at 100 uM using NADPH/H+ as co-factor after 30 to 90 mins by LC/MSD iom trap method. Type of series: ADME.
Series [33] can be described thus: Drug metabolism in rat liver microsomes assessed as CYP450-mediated amide hydrolysis amidase by measuring 1-butyl-3-carbamoyl-5-fluoro-7-morpholino-4-oxo-1,4-dihydroquinolinium formation at 100 uM using NADPH/H+ as co-factor after 30 to 90 mins by LC/MSD iom trap method. Type of series: ADME.

The structures appear in SMILES notation. ≈ marks a conversion by molar mass, not a printed value.

In the case of `CCCCn1cc(C(=O)NCc2ccc(F)cc2)c(=O)c2cc(F)c(N3CCOCC3)cc21`, the CC50 (usually the concentration that lowers cell viability or growth by half) at 24 h in series [1] was greater than 20000 nM. The logP (as a rule, the decadic logarithm of the partition coefficient of the neutral form, usually between octanol and water) in [2] was found to be 4.13. Also, the Drug metabolism entry in series [3], in [4], in series [6], in series [7], in series [8] and in [9] was “Metabolite_Detected” in each case. Moreover, the Drug metabolism result in series [12] and in series [14] was “Metabolite_Detected” throughout. For the same compound, the IC50 (commonly the concentration that gives 50% inhibition) was determined as 50 nM in [5] and 90 nM in series [15]. Further, the half-life (usually the time in which the quantity being followed falls by half) in [10] is 6.4 h. In series [11], the selectivity ratio at 48 h is greater than 400. For the same compound, the solubility entry in [13] was “Insoluble”.
`CCCCn1cc(C(=O)NCc2ccc(F)cc2)c(=O)c2c(F)cc(N3CCOCC3)cc21`: the CC50 at 24 h in [1] is greater than 25000 nM. Besides, the Drug metabolism entry in series [16], in series [17], in series [18], in series [19], in series [20] and in [21] was “Metabolite_Detected” throughout. Further, the Drug metabolism entry in series [22] is on record as “Metabolite_Detected”; in series [23], 3.89 pmol/min/mg protein; in series [24], “Metabolite_Detected”. Further, in [2], the lipophilicity (logP) was determined as 3.41. Moreover, the IC50 in series [5] and in [15] was 20 nM throughout. Further, the half-life in series [10] was 7.7 h. The selectivity ratio at 48 h in [11] was greater than 1250. For the same compound, in [13], the solubility result was “Insoluble”.
`CCCCn1cc(C(=O)NCc2ccccc2)c(=O)c2c(F)cc(N3CCOCC3)cc21` came in with a CC50 at 24 h in series [1] greater than 100000 nM. For the same compound, the solubility thermodynamic at 24 h in series [25] was determined as 0.12 µg/mL (≈ 0.274 µM). The Drug metabolism entry in series [26] was “Metabolite_Detected”; in [27], “Metabolite_Detected”; in series [28], “Metabolite_Detected”; in series [29], “Metabolite_Detected”; in series [30], “Metabolite_Detected”; in [23], 4.3 pmol/min/mg protein. The Drug metabolism result in series [31], in series [32] and in series [33] was “Metabolite_Detected” each time. In [2], this compound returned a logP of 3.36. Also, the values for the IC50 in [5] and in series [15] were 50 nM and 80 nM, respectively. In series [10], this compound had a half-life of 7.2 h. Further, the selectivity ratio at 48 h in series [11] is greater than 2000.
